Experimental data from US20130109682A1, “CYCLIC ETHER COMPOUNDS USEFUL AS KINASE INHIBITORS” (NOVARTIS AG, priority 2010, published 2013).

What was measured:
PIM3 = PIM3 (Homo sapiens, UniProt Q86V86); assay: KinaseGlo Pim3 ATP depletion assay; type: biochemical
How it was run: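 Kinase was preincubated 15 min with BAD peptide in HEPES pH 7.5/MgCl2/DTT/BSA before ATP was added. Final concentrations were 40 μM ATP, 100 μM BAD peptide and 2.5% DMSO, with 5 nM enzyme. The reaction ran to ~50% ATP depletion and remaining ATP was read by KinaseGlo Plus luminescence.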

PIM1 = PIM1 (Homo sapiens, UniProt P11309); assay: KinaseGlo Pim1 ATP depletion assay; type: biochemical
PIM1, sequence (P11309 whole entry): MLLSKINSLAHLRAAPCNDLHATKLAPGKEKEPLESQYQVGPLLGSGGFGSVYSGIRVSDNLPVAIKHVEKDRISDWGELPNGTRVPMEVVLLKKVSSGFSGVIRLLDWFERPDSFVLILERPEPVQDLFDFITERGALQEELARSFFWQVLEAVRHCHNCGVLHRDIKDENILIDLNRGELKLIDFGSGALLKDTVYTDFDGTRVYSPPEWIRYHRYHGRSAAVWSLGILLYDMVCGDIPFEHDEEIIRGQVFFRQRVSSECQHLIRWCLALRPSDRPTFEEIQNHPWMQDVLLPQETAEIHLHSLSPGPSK
How it was run: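 2.5 nM PIM1 preincubated 15 min with compound and 40 μM BAD peptide in 50 mM HEPES pH 7.5, 5 mM MgCl2, 1 mM DTT, 0.05% BSA, 2.5% DMSO. The reaction was started with 20 μM ATP (final) and run to about 50% ATP depletion. Remaining ATP read by KinaseGlo Plus luminescence to give IC50.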

[1] = tested on: KMS11 (human myeloma cell line); assay: Cell proliferation assay (CellTiter-Glo), KMS11; type: cell-based; conditions: Homo sapiens, KMS-11; KMS11-Luc cells
How it was run: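 KMS11 cells in IMDM with 10% FBS and sodium pyruvate, seeded at 2000 cells/well on assay day. Compound added at 2× to equal volume of cells, incubated 3 days at 37° C. Viability read by CellTiter-Glo luminescence; EC50 derived.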

PIM2 = PIM2 (Homo sapiens, UniProt Q9P1W9); assay: KinaseGlo Pim2 ATP depletion assay; type: biochemical
PIM2, sequence (Q9P1W9 whole entry): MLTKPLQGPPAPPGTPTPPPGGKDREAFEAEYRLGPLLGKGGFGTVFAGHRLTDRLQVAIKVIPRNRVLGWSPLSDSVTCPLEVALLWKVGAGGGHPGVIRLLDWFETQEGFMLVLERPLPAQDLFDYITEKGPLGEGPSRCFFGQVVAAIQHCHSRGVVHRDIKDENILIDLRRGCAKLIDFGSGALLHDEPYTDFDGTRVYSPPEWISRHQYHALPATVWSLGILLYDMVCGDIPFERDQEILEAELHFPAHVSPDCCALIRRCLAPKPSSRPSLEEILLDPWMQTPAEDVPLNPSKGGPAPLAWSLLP
How it was run: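 Luminescent ATP-depletion read-out of PIM2 phosphorylating BAD peptide (RSRHSSYPAGT-OH). Final conditions: 5 nM PIM2, 4 μM ATP, 10 μM peptide, 2.5% DMSO in 50 mM HEPES pH 7.5, 5 mM MgCl2, 1 mM DTT, 0.05% BSA. Enzyme–peptide preincubated 15 min with compound; reaction run to ~50% ATP depletion.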

GSK3β = GSK3β (Homo sapiens, UniProt P49841); assay: GSK3β ATP depletion assay; type: biochemical; conditions: read-out: GSK3b IC50
GSK3β, sequence (P49841 whole entry, species assumed): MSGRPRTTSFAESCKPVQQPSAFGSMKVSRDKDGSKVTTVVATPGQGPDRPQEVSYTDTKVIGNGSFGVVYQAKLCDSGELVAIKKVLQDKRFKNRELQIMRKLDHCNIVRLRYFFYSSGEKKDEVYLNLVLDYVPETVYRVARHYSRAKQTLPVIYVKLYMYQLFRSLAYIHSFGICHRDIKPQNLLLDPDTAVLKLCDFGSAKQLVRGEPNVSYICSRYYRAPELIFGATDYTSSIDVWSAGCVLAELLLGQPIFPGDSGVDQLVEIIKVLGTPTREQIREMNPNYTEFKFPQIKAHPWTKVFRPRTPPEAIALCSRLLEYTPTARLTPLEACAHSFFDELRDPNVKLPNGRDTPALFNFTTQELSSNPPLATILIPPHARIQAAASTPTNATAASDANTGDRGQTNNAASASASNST
How it was run: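 Human GSK3β (5 nM) preincubated 15 min with 10 μM biotinylated phospho-CREB peptide in pH 7.5 Tris buffer (15 mM MgCl2, 1 mM DTT, 0.1% BSA, 2.5% DMSO). Reaction started with 2 μM ATP and run to about 50% ATP depletion. Remaining ATP measured by KinaseGlo luminescence.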

IC50 (PIM3)	IC50 (PIM1)	EC50 [1]	IC50 (PIM2)	IC50 (GSK3β)	Compound
53 nM	4 nM	4000 nM	497 nM	1800 nM	C[C@H]1O[C@@H](c2ccncc2NC(=O)c2ccc(F)c(-c3c(F)cccc3F)n2)[C@H](F)[C@@H](O)[C@]1(C)O (stereo in doubt) [Example 69, 6-(2,6-difluorophenyl)-5-fluoro-N-(4-((2S,3R,4S,5S,6R)-3-fluoro-4,5-dihydroxy-5,6-dimethyltetrahydro-2H-pyran-2-yl)pyridin-3-yl)picolinamide]
1 nM	1 nM	9600 nM	3 nM	23 nM	CC[C@H]1O[C@@H](c2ccncc2NC(=O)c2nc(-c3ccccc3F)c(F)cc2N)C[C@@H](O)[C@@H]1O [Example 42, 3-amino-N-(4-((2R,4R,5S,6R)-6-ethyl-4,5-dihydroxytetrahydro-2H-pyran-2-yl)pyridin-3-yl)-5-fluoro-6-(2-fluorophenyl)picolinamide]
2 nM	1 nM	2200 nM	4 nM	228 nM	CC[C@H]1O[C@@H](c2ccncc2NC(=O)c2ccc(F)c(-c3c(F)cccc3F)n2)C[C@@H](O)[C@@H]1O [Example 75, 6-(2,6-difluorophenyl)-N-(4-((2R,4R,5S,6R)-6-ethyl-4,5-dihydroxytetrahydro-2H-pyran-2-yl)pyridin-3-yl)-5-fluoropicolinamide]
16 nM	19 nM	> 10000 nM	347 nM	659 nM	C[C@H]1O[C@@H](c2ccncc2NC(=O)c2ccc(F)c(-c3c(F)cccc3F)n2)C[C@@H](O)[C@]1(C)O (stereo in doubt) [Example 110, 6-(2,6-difluorophenyl)-N-(4-((2R,4R,5S,6R)-4,5-dihydroxy-5,6-dimethyltetrahydro-2H-pyran-2-yl)pyridin-3-yl)-5-fluoropicolinamide]
44 nM	31 nM	> 10000 nM	720 nM	854 nM	C[C@H]1O[C@@H](c2ccncc2NC(=O)c2ccc(F)c(-c3c(F)cccc3F)n2)[C@H](O)[C@@H](O)[C@]1(C)O (stereo in doubt) [Example 81, 6-(2,6-difluorophenyl)-5-fluoro-N-(4-((2S,3R,4R,5S,6R)-3,4,5-trihydroxy-5,6-dimethyltetrahydro-2H-pyran-2-yl)pyridin-3-yl)picolinamide]
2.7 nM	3 nM	5900 nM	2.3 nM	1030 nM	CC[C@H]1O[C@@H](c2ccncc2NC(=O)c2nc(-c3c(F)cccc3F)ncc2N)C[C@@H](O)[C@]1(C)O [Example 168, 5-amino-2-(2,6-difluorophenyl)-N-(4-((2R,4R,5S,6R)-6-ethyl-4,5-dihydroxy-5-methyltetrahydro-2H-pyran-2-yl)pyridin-3-yl)pyrimidine-4-carboxamide]
20.4 nM	29.7 nM	> 10000 nM	30.3 nM	691 nM	N#C[C@H]1O[C@@H](c2ccncc2NC(=O)c2nc(-c3c(F)cccc3F)ncc2N)C[C@@H](O)[C@@H]1O [Example 148, 5-amino-N-(4-((2R,4R,5S,6R)-6-cyano-4,5-dihydroxytetrahydro-2H-pyran-2-yl)pyridin-3-yl)-2-(2,6-difluorophenyl)pyrimidine-4-carboxamide]
10 nM	3 nM	> 10000 nM	214 nM	2200 nM	O=C(Nc1cnccc1[C@@H]1CCCCO1)c1ccc(F)c(-c2c(F)cccc2F)n1 [Example 133, (S)-6-(2,6-difluorophenyl)-5-fluoro-N-(4-(tetrahydro-2H-pyran-2-yl)pyridin-3-yl)picolinamide]
2 nM	1 nM	184 nM	8 nM	1 nM	CC[C@]1(O)[C@H](O)C[C@H](c2ccncc2NC(=O)c2nc(-c3ccccc3)cnc2N)O[C@@H]1C [Example 15, 3-amino-N-(4-((2R,4R,5S,6R)-5-ethyl-4,5-dihydroxy-6-methyltetrahydro-2H-pyran-2-yl)pyridin-3-yl)-6-phenylpyrazine-2-carboxamide]
1.5 nM	0.6 nM	1330 nM	1.2 nM	1680 nM	CC[C@H]1O[C@@H](c2ccncc2NC(=O)c2nc(-c3c(F)cccc3F)c(F)cc2N)C[C@@H](O)[C@]1(C)O [Example 166, 3-amino-6-(2,6-difluorophenyl)-N-(4-((2R,4R,5S,6R)-6-ethyl-4,5-dihydroxy-5-methyltetrahydro-2H-pyran-2-yl)pyridin-3-yl)-5-fluoropicolinamide]
33 nM	7 nM	> 10000 nM	149 nM	442 nM	N#CC[C@H]1O[C@@H](c2ccncc2NC(=O)c2ccc(F)c(-c3c(F)cccc3F)n2)CC[C@@H]1O [Example 46, N-(4-((2R,5S,6R)-6-(cyanomethyl)-5-hydroxytetrahydro-2H-pyran-2-yl)pyridin-3-yl)-6-(2,6-difluorophenyl)-5-fluoropicolinamide]
4.2 nM	3.2 nM	9500 nM	7.9 nM	1060 nM	O=C(Nc1cnccc1[C@@H]1C[C@H](O)[C@@H](O)[C@H](C2CC2)O1)c1ccc(F)c(-c2c(F)cccc2F)n1 [Example 209, N-(4-((2S,4S,5R,6S)-6-cyclopropyl-4,5-dihydroxytetrahydro-2H-pyran-2-yl)pyridin-3-yl)-6-(2,6-difluorophenyl)-5-fluoropicolinamide]
11 nM	5 nM	> 10000 nM	142 nM	64 nM	C[C@@H]1O[C@H](c2ccncc2NC(=O)c2csc(-c3c(F)cccc3F)n2)C[C@H](N)[C@H]1O [Example 113, N-(4-((2S,4S,5R,6S)-4-amino-5-hydroxy-6-methyltetrahydro-2H-pyran-2-yl)pyridin-3-yl)-2-(2,6-difluorophenyl)thiazole-4-carboxamide]
15.8 nM	32.8 nM	> 10000 nM	22.3 nM	1430 nM	C=C[C@H]1O[C@@H](c2ccncc2NC(=O)c2nc(-c3c(F)cccc3F)ncc2N)C[C@@H](O)[C@@H]1O [Example 161, 5-amino-2-(2,6-difluorophenyl)-N-(4-((2R,4R,5S,6R)-4,5-dihydroxy-6-vinyltetrahydro-2H-pyran-2-yl)pyridin-3-yl)pyrimidine-4-carboxamide]
31 nM	5 nM	4000 nM	500 nM	46 nM	CC1(C)O[C@H](c2ccncc2NC(=O)c2csc(-c3c(F)cccc3F)n2)C[C@@H](O)[C@H]1O [Example 90, 2-(2,6-difluorophenyl)-N-(4-((2S,4R,5R)-4,5-dihydroxy-6,6-dimethyltetrahydro-2H-pyran-2-yl)pyridin-3-yl)thiazole-4-carboxamide]
89 nM	6 nM	6000 nM	3390 nM	1070 nM	C[C@H]1O[C@@H](c2ccncc2NC(=O)c2csc(-c3c(F)cccc3F)n2)[C@H](F)[C@@H](O)[C@]1(C)O (stereo in doubt) [Example 68, 2-(2,6-difluorophenyl)-N-(4-((2S,3R,4S,5S,6R)-3-fluoro-4,5-dihydroxy-5,6-dimethyltetrahydro-2H-pyran-2-yl)pyridin-3-yl)thiazole-4-carboxamide]
17 nM	4 nM	> 10000 nM	363 nM	3520 nM	O=C(Nc1cnccc1C1OCCCO1)c1ccc(F)c(-c2c(F)cccc2F)n1 [Example 118, N-(4-(1,3-dioxan-2-yl)pyridin-3-yl)-6-(2,6-difluorophenyl)-5-fluoropicolinamide]
1 nM	1 nM	4670 nM	1 nM	41 nM	Nc1cc(F)c(-c2ccccc2F)nc1C(=O)Nc1cnccc1C1=C[C@@H](O)[C@H](O)[C@@H](CCl)O1 [Example 29, 3-amino-N-(4-((2S,3S,4R)-2-(chloromethyl)-3,4-dihydroxy-3,4-dihydro-2H-pyran-6-yl)pyridin-3-yl)-5-fluoro-6-(2-fluorophenyl)picolinamide]
5 nM	1 nM	> 10000 nM	59 nM	117 nM	C[C@H]1O[C@@H](c2ccncc2NC(=O)c2ccc(F)c(-c3ccccc3F)n2)C[C@@H](O)[C@]1(C)O [Example 93, N-(4-((2R,4R,5S,6R)-4,5-dihydroxy-5,6-dimethyltetrahydro-2H-pyran-2-yl)pyridin-3-yl)-5-fluoro-6-(2-fluorophenyl)picolinamide]
